Source: ChEMBL document CHEMBL1201862, “PubChem BioAssay data set” (2004)
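96-well plates; 48 h exposure; 5 concentrations. Endpoints by linear interpolation between flanking doses. Not reached: highest tested concentration assigned. GI50: concentration for 50% inhibition of growth.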 Calls of active or inactive are those of the source. No stated cut-off is given here; in the data, active = GI50 up to about 1.1 µM and inactive = higher.

Experiments:
Test in all cases: NCI-60 cell line screen, 48 h
XF498 = tested on: XF498
M14 = tested on: M14
DMS-273 = tested on: DMS-273
LXFL 529 = tested on: LXFL 529
ACHN = tested on: ACHN
DMS-114 = tested on: DMS-114
M19-MEL = tested on: M19-MEL
SK-MEL-2 = tested on: SK-MEL-2
A549 = tested on: A549
SR = tested on: SR
K562 = tested on: K562
EKVX = tested on: EKVX
NCI/ADR-RES = tested on: NCI/ADR-RES
TK-10 = tested on: TK-10
MCF7 = tested on: MCF7
A498 = tested on: A498
SNB-78 = tested on: SNB-78
HOP-18 = tested on: HOP-18
KM-20L2 = tested on: KM-20L2
786-0 = tested on: 786-0

## CC1(C)CCc2cc3c(cc2O1)OC(C)(C)CC3=O
XF498
  GI50: 50.8 µM (inactive)
M14
  GI50: > 100 µM (inactive)
DMS-273
  GI50: 71.3 µM (inactive)
LXFL 529
  GI50: 81.5 µM (inactive)
ACHN
  GI50: 88.9 µM (inactive)
DMS-114
  GI50: 40.9 µM (inactive)
M19-MEL
  GI50: 88.7 µM (inactive)
SK-MEL-2
  GI50: > 100 µM (inactive)
A549
  GI50: 75.2 µM (inactive)
SR
  GI50: 57.5 µM (inactive)
K562
  GI50: 44.6 µM (inactive)
EKVX
  GI50: 93.5 µM (inactive)

## COc1ccc2c(c1)/C(=C/CCN(C)C)c1ccccc1S2
NCI/ADR-RES
  GI50: > 100 µM (inactive)
TK-10
  GI50: > 100 µM (inactive)
M14
  GI50: 73.8 µM (inactive)
MCF7
  GI50: > 10 µM (inactive)
ACHN
  GI50: > 100 µM (inactive)
A549
  GI50: > 100 µM (inactive)
SR
  GI50: 69 µM (inactive)
K562
  GI50: 46.1 µM (inactive)
A498
  GI50: > 100 µM (inactive)

## CS(=O)(=O)OCC1=C(COS(C)(=O)=O)C(=O)c2c(O)ccc(O)c2C1=O
SNB-78
  GI50: > 100 µM (inactive)
TK-10
  GI50: > 100 µM (inactive)
HOP-18
  GI50: > 100 µM (inactive)
M14
  GI50: > 100 µM (inactive)
DMS-273
  GI50: > 100 µM (inactive)
KM-20L2
  GI50: > 100 µM (inactive)
LXFL 529
  GI50: > 100 µM (inactive)
ACHN
  GI50: > 100 µM (inactive)
DMS-114
  GI50: > 100 µM (inactive)
SK-MEL-2
  GI50: > 100 µM (inactive)
A549
  GI50: > 100 µM (inactive)
SR
  GI50: > 100 µM (inactive)
K562
  GI50: > 100 µM (inactive)
EKVX
  GI50: > 100 µM (inactive)
A498
  GI50: > 100 µM (inactive)

## CCCC(=O)Nc1cc(/C=C/C(=O)N2CC(CCl)c3c2cc(OCc2ccccc2)c2[nH]cc(C)c32)n(C)c1 (configuration not stated)
NCI/ADR-RES
  GI50: 0.0238 µM (active)
TK-10
  GI50: 0.533 µM (active)
M14
  GI50: 0.142 µM (active)
786-0
  GI50: 0.0365 µM (active)
MCF7
  GI50: 0.0025 µM (active)
ACHN
  GI50: 0.013 µM (active)
SK-MEL-2
  GI50: 0.074 µM (active)
A549
  GI50: 0.0219 µM (active)
SR
  GI50: 0.00444 µM (active)
K562
  GI50: 0.0373 µM (active)
EKVX
  GI50: 0.136 µM (active)
A498
  GI50: 0.0953 µM (active)

## CC1(C)CCC2(C(=O)O)C(O)CC3(C)C(=CCC4C5(C)CCC(OC6OCC(O)C(O)C6OC6OCC(O)C(O)C6OC6OCC(O)C(OC7OC(CO)C(O)C(O)C7O)C6O)C(C)(C)C5CCC43C)C2C1 (configuration not stated)
NCI/ADR-RES
  GI50: > 100 µM (inactive)
TK-10
  GI50: > 100 µM (inactive)
M14
  GI50: 40.1 µM (inactive)
786-0
  GI50: > 100 µM (inactive)
MCF7
  GI50: > 100 µM (inactive)
ACHN
  GI50: 35.1 µM (inactive)
SK-MEL-2
  GI50: 24.5 µM (inactive)
A549
  GI50: 33.7 µM (inactive)
SR
  GI50: 4.21 µM (inactive)
K562
  GI50: 25.6 µM (inactive)
EKVX
  GI50: 37.9 µM (inactive)
A498
  GI50: 26.9 µM (inactive)

## CCOC(=O)/C(=N/Nc1ccc(Cl)cc1)N1C(=S)N(C)N=C(C)C=C1S
NCI/ADR-RES
  GI50: 42.9 µM (inactive)
TK-10
  GI50: 30.5 µM (inactive)
M14
  GI50: > 100 µM (inactive)
MCF7
  GI50: > 100 µM (inactive)
ACHN
  GI50: > 100 µM (inactive)
SK-MEL-2
  GI50: 57.7 µM (inactive)
A549
  GI50: 61.8 µM (inactive)
SR
  GI50: > 100 µM (inactive)
K562
  GI50: > 100 µM (inactive)
EKVX
  GI50: 24.3 µM (inactive)

## O=c1cc(N2CCCC2)[nH]c(=O)n1-c1cccc(C(F)(F)F)c1
NCI/ADR-RES
  GI50: > 100 µM (inactive)
TK-10
  GI50: > 100 µM (inactive)
M14
  GI50: > 100 µM (inactive)
786-0
  GI50: > 100 µM (inactive)
MCF7
  GI50: > 100 µM (inactive)
ACHN
  GI50: > 100 µM (inactive)
SK-MEL-2
  GI50: > 100 µM (inactive)
K562
  GI50: > 100 µM (inactive)
EKVX
  GI50: > 100 µM (inactive)
A498
  GI50: > 100 µM (inactive)

## CC(C)NC(=O)OCc1c(COC(=O)NC(C)C)c(-c2cc[n+](COC(=O)Cc3ccccc3)cc2)n2c1CCC2
NCI/ADR-RES
  GI50: > 100 µM (inactive)
TK-10
  GI50: > 100 µM (inactive)
M14
  GI50: > 100 µM (inactive)
786-0
  GI50: 46 µM (inactive)
MCF7
  GI50: 67.5 µM (inactive)
ACHN
  GI50: 40.5 µM (inactive)
SK-MEL-2
  GI50: > 100 µM (inactive)
A549
  GI50: > 100 µM (inactive)
SR
  GI50: 9.59 µM (inactive)
K562
  GI50: > 100 µM (inactive)
EKVX
  GI50: > 100 µM (inactive)
A498
  GI50: > 100 µM (inactive)

## CCCCCCCCCCC(C)CCCCCCC(=O)O (configuration not stated)
SNB-78
  GI50: > 100 µM (inactive)
TK-10
  GI50: > 100 µM (inactive)
HOP-18
  GI50: > 100 µM (inactive)
M14
  GI50: > 100 µM (inactive)
DMS-273
  GI50: > 100 µM (inactive)
786-0
  GI50: > 100 µM (inactive)
LXFL 529
  GI50: > 100 µM (inactive)
ACHN
  GI50: > 100 µM (inactive)
DMS-114
  GI50: > 100 µM (inactive)
M19-MEL
  GI50: > 100 µM (inactive)
SK-MEL-2
  GI50: > 100 µM (inactive)
A549
  GI50: > 100 µM (inactive)
SR
  GI50: > 100 µM (inactive)
K562
  GI50: > 100 µM (inactive)
EKVX
  GI50: > 100 µM (inactive)
A498
  GI50: > 100 µM (inactive)

## CCOC(=O)c1ccc(N[C@@H]2c3cc4c(cc3C(c3cc(OC)c(O)c(OC)c3)[C@H]3C(=O)OCC32)OCO4)cc1O (some centres not stated)
XF498
  GI50: 1.3 µM (inactive)
NCI/ADR-RES
  GI50: 4.43 µM (inactive)
SNB-78
  GI50: 1.77 µM (inactive)
HOP-18
  GI50: 2.25 µM (inactive)
DMS-273
  GI50: 0.299 µM (active)
KM-20L2
  GI50: 2.2 µM (inactive)
MCF7
  GI50: 0.723 µM (active)
DMS-114
  GI50: 0.56 µM (active)
M19-MEL
  GI50: 0.893 µM (active)
SK-MEL-2
  GI50: 0.809 µM (active)
A549
  GI50: 0.0946 µM (active)
K562
  GI50: 0.78 µM (active)
EKVX
  GI50: 2.25 µM (inactive)
A498
  GI50: 0.607 µM (active)
